Source: publication PMC11738990, “A small-molecule TNIK inhibitor targets fibrosis in preclinical and clinical models” (Nature Biotechnology, 2024)
Values joined by “and” are separate entries in the source; they are usually repeats but may differ in a detail not shown here. Equal entries are not always repeated.

Tests used:
Sprague Dawley rats = assay: Bleomycin-induced skin scarring model; type: in vivo, rat; conditions: 0.05% topical
Procedure: Animals were anesthetized using isoflurane. Using a 1-ml syringe containing a 27-gauge needle, 100 µl bleomycin (1 mg ml^−1 in PBS) solution was injected subcutaneously into two sites on the shaved dorsal regions, QD for 4 weeks. Rats in the naive control group were injected daily with an equivalent volume of sterile PBS. […] After 4 weeks of treatment, animals were killed with CO2, and skin was collected.
Hydroxyproline and collagen concentrations were normalized to total protein content using the Bradford method.

CD-1 mice = conditions: single IV; ref Insilico Medicine, 2021; cited from earlier work
[1] = test system: primary lung fibroblasts from donors with IPF; assay: FMT by α-SMA, high-content analysis; type: cell-based, human; conditions: three donors with IPF; read-out: IC50, TGF-β-mediated α-SMA expression
Procedure: For the measurement of FMT by α-SMA, on the first day, human lung-derived primary lung fibroblast cells were seeded. After 2 d, the medium of the cells was refreshed. […] On the eighth day (72 h after triggering), cells were fixed with 4% formaldehyde, stained for α-SMA and with DAPI and then imaged and quantified via high-content analysis (HCA) (IN Cell Analyzer 2200, GE Healthcare).
Segmentation and quantification of α-SMA and FN1 immunoreactivity was carried out with an HCA algorithm, with density × area (D × A) output. Data normalization of raw α-SMA or FN1 (D × A) to percent inhibition values was performed on a plate-to-plate basis.
[…]
μp is the average α-SMA or FN1 value of the positive control (TGF-β1 + 1 μM SB525334). μn is the average α-SMA or FN1 value of the vehicle control (TGF-β1 + 0.1% DMSO). Xi is the compound α-SMA or FN1 value. IC50 values for all compounds (if calculable, based on the point of inflection) were calculated with GraphPad Prism using non-linear fit of log (inhibitor) versus response (four parameter).
DAPI fluorescence was applied for HCA-based quantification of the number of imaged cells on a plate-to-plate basis.
Percent remaining cells = (Xi/μn) × 100%
μn is the average number of nuclei of the vehicle control (TGF-β1 + 0.1% DMSO). Xi is the compound number of nuclei.

Compound: CC(C)n1cnc(-c2ccc(F)cc2)c1-c1nc(C(=O)Nc2ccc(N3CCN(C)CC3)cc2)c[nH]1 [INS018_055, 2-[4-(4-fluorophenyl)-1-(prop-2-yl)imidazol-5-yl]-N-[4-(4-methylhexahydropyrazin-1-yl)phenyl]-1H-imidazole-4-carboxamide]
- Hydroxyproline in skin (Sprague Dawley rats): 1036.36 and 1122.01 and 1193.18 and 833.714 and 660.98
- Total collagen in skin (Sprague Dawley rats): 114.74 and 120.73 and 157.27 and 80.17 and 90.17
- LOAEL (CD-1 mice): 10 mg/kg
- IC50 [1]: 50 nM and 79 nM and 63 nM
